Test results published in patent publication US20250171432A1, “COMPOUNDS AND METHODS OF USE” (Tango Therapeutics, Inc., priority 2022, published 2025).

Tests used:
Type in all cases: cell-based
[1] = tested on: SDMA (PRMT5 activity) in HAP1 MTAP-intact cell line; experiment: SDMA in-cell western assay, HAP1 MTAP-intact; conditions: Homo sapiens, SDMA in-cell western, HAP1 MTAP-intact cells, 24 hours compound incubation
[2] = tested on: SDMA (PRMT5 activity) in HAP1 MTAP-deleted cell line; experiment: SDMA in-cell western assay, HAP1 MTAP-deleted; conditions: for IC50 / IC90: Homo sapiens, SDMA in-cell western, HAP1 MTAP-deleted cells, 24 hours compound incubation; for Hap1 MTAP intact/deleted ratio: ratio of SDMA IC50 in HAP1 MTAP-intact to HAP1 MTAP-deleted cell line
[3] = tested on: HAP1 MTAP-deleted cell line; experiment: Viability assay (CellTiter-Glo), HAP1 MTAP-deleted; conditions: Homo sapiens, 168 h, HAP1 MTAP-deleted cells, 7 days
Summary of the method: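 HAP1 MTAP-deleted and MTAP-intact cells seeded, then dosed next day (n=3, 0.2% DMSO) and grown 7 days. Viability by CellTiter-Glo luminescence, expressed as % of DMSO control per cell line.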

Row | IC50 ([1]; HAP1, 24 h) [nM] | IC50 [2] [nM] | IC90 [2] [nM] | SMILES | Hap1 MTAP intact/deleted ratio [2] | IC50 [3] [nM] | IC50 [1] [nM]
1 | > 50 | < 5 | < 75 | CCc1cc(NC(=O)C(=O)N2C[C@@H](C)CC[C@@H]2c2ccc3sc([C@H]4C[C@@H]5CN(C)C[C@@H]5C4)nc3c2)cnc1N (single isomer, unassigned) [Compound 33] | A (“A” indicates an IC50 ratio greater than or equal to 30 fold) | < 100 | –
2 | > 50 | < 5 | < 75 | COc1ncc(NC(=O)C(=O)N2C[C@@H](C)CC[C@@H]2c2ccc3sc([C@@H]4CN(C)C(C)(C)C4)nc3c2)cc1C(N)=O (single isomer, unassigned) [Compound 30] | B (“B” indicates an IC50 ratio greater than or equal to 15 fold but lower than 30 fold) | < 100 | –
3 | 5 to 50 | < 5 | < 75 | CCc1cc(NC(=O)C(=O)N2C[C@@H](C)CC[C@@H]2c2ccc3sc([C@H]4CN(C)C(C)(C)C4)nc3c2)cnc1N (single isomer, unassigned) [Compound 27] | B (“B” indicates an IC50 ratio greater than or equal to 15 fold but lower than 30 fold) | < 100 | –
4 | > 50 | < 5 | < 75 | CCc1cc(NC(=O)C(=O)N2C[C@@H](C)CC[C@@H]2c2ccc3sc([C@@H]4C[C@H](C)N(C)C4)nc3c2)cnc1N (racemic) [Compound 16, N-(6-amino-5-ethyl-3-pyridyl)-2-oxo-2-[(2R,5S)-5-methyl-2-[2-[rac-(3S,5R)-1,5-dimethylpyrrolidin-3-yl]-1,3-benzothiazol-5-yl]-1-piperidyl]acetamide] | A (“A” indicates an IC50 ratio greater than or equal to 30 fold) | < 100 | –
5 | > 50 | < 5 | < 75 | CCc1cc(NC(=O)C(=O)N2C[C@@H](C)CC[C@@H]2c2ccc3sc([C@H]4C[C@@H](N(C)C)C4)nc3c2)cnc1N [Compound 40, N-(6-amino-5-ethyl-3-pyridyl)-2-oxo-2-[(2R,5S)-2-[2-[3-(dimethylamino)cyclobutyl]-1,3-benzothiazol-5-yl]-5-methyl-1-piperidyl]acetamide] | A (“A” indicates an IC50 ratio greater than or equal to 30 fold) | < 100 | –
6 | 5 to 50 | < 5 | < 75 | CCc1cc(NC(=O)C(=O)N2C[C@@H](C)CC[C@@H]2c2ccc3sc(CC4CCN(C)CC4)nc3c2)cnc1N [Compound 41, N-(6-amino-5-ethylpyridin-3-yl)-2-((2R,5S)-5-methyl-2-(2-((1-methylpiperidin-4-yl)methyl)benzo[d]thiazol-5-yl)piperidin-1-yl)-2-oxoacetamide] | B (“B” indicates an IC50 ratio greater than or equal to 15 fold but lower than 30 fold) | < 100 | –

Continued, molecule first:

Row | SMILES | IC50 ([1]; HAP1, 24 h) [nM] | IC50 [2] [nM] | IC90 [2] [nM] | Hap1 MTAP intact/deleted ratio [2] | IC50 [3] [nM] | IC50 [1] [nM]
7 | CCc1cc(NC(=O)C(=O)N2C[C@@H](C)CC[C@@H]2c2ccc3cn([C@H]4CCCN(C)C4)nc3c2)cnc1N [Compound 104] | > 50 | < 5 | < 75 | B (“B” indicates an IC50 ratio greater than or equal to 15 fold but lower than 30 fold) | < 100 | –
8 | COc1ncc(NC(=O)C(=O)N2C[C@@H](C)CC[C@@H]2c2ccc3sc([C@@H](C)N(C)C)nc3c2)cc1C(N)=O [Compound 25, 2-methoxy-5-[[2-oxo-2-[(2R,5S)-5-methyl-2-[2-[(1R)-1-(dimethylamino)ethyl]-1,3-benzothiazol-5-yl]-1-piperidyl]acetyl]amino]pyridine-3-carboxamide] | > 50 | 5 to 50 | 75 to 125 | A (“A” indicates an IC50 ratio greater than or equal to 30 fold) | < 100 | –
9 | COc1ncc(NC(=O)C(=O)N2C[C@@H](C)CC[C@@H]2c2ccc3cn([C@H]4CCOC4)nc3c2)cc1C(N)=O (racemic) [Compound 97, 2-methoxy-5-[[2-oxo-2-[rac-(2R,5S)-5-methyl-2-(2-tetrahydrofuran-3-ylindazol-6-yl)-1-piperidyl]acetyl]amino]pyridine-3-carboxamide] | > 50 | 5 to 50 | 75 to 125 | A (“A” indicates an IC50 ratio greater than or equal to 30 fold) | 100 to 1000 | –
10 | COc1ncc(NC(=O)C(=O)N2C[C@@H](C)CC[C@@H]2c2ccc3sc(CC(C)(C)N(C)C)nc3c2)cc1C(N)=O [Compound 120, 5-(2-((2R,5S)-2-(2-(2-(dimethylamino)-2-methylpropyl)benzo[d]thiazol-5-yl)-5-methylpiperidin-1-yl)-2-oxoacetamido)-2-methoxynicotinamide] | > 50 | < 5 | < 75 | A (“A” indicates an IC50 ratio greater than or equal to 30 fold) | < 100 | –
11 | CCc1cc(NC(=O)C(=O)N2C[C@@H](C)CC[C@@H]2c2ccc3c(C)n(C4CCN(C)CC4)nc3c2)cnc1N [Compound 19, N-(6-amino-5-ethyl-3-pyridyl)-2-oxo-2-[(2R,5S)-5-methyl-2-[3-methyl-2-(1-methyl-4-piperidyl)indazol-6-yl]-1-piperidyl]acetamide] | > 50 | < 5 | < 75 | A (“A” indicates an IC50 ratio greater than or equal to 30 fold) | < 100 | –
12 | COc1ncc(NC(=O)C(=O)N2C[C@@H](C)CC[C@@H]2c2ccc3sc(C4(C)CCN(C)CC4)nc3c2)cc1C(N)=O [Compound 122, 5-(2-((2R,5S)-2-(2-(1,4-dimethylpiperidin-4-yl)benzo[d]thiazol-5-yl)-5-methylpiperidin-1-yl)-2-oxoacetamido)-2-methoxynicotinamide] | – | < 5 | < 75 | A (“A” indicates an IC50 ratio greater than or equal to 30 fold) | < 100 | > 50
13 | COc1ncc(NC(=O)C(=O)N2C[C@@H](C)CC[C@@H]2c2ccc3sc([C@@H]4CCN(C)C[C@H]4OC)nc3c2)cc1C(N)=O (single isomer, unassigned) [Compound 68] | > 50 | < 5 | < 75 | A (“A” indicates an IC50 ratio greater than or equal to 30 fold) | < 100 | –
14 | CCc1cc(NC(=O)C(=O)N2C[C@@H](C)CC[C@@H]2c2ccc3cc(C4CCN(C)CC4)cnc3c2)cnc1N [Compound 95, N-(6-amino-5-ethylpyridin-3-yl)-2-((2R,5S)-5-methyl-2-(3-(1-methylpiperidin-4-yl)quinolin-7-yl)piperidin-1-yl)-2-oxoacetamide] | 5 to 50 | < 5 | < 75 | B (“B” indicates an IC50 ratio greater than or equal to 15 fold but lower than 30 fold) | < 100 | –
15 | CCc1cc(NC(=O)C(=O)N2C[C@@H](C)CC[C@@H]2c2ccc3ccc(C4CCN(C)CC4)cc3c2)cnc1N [Compound 123, N-(6-amino-5-ethylpyridin-3-yl)-2-((2R,5S)-5-methyl-2-(7-(1-methylpiperidin-4-yl)naphthalen-2-yl)piperidin-1-yl)-2-oxoacetamide] | > 50 | < 5 | < 75 | A (“A” indicates an IC50 ratio greater than or equal to 30 fold) | < 100 | –
16 | COc1ncc(NC(=O)C(=O)N2C[C@@H](C)CC[C@@H]2c2ccc3sc([C@H]4CN(C)CCO4)nc3c2)cc1C(N)=O [Compound 124] | > 50 | 5 to 50 | > 125 | A (“A” indicates an IC50 ratio greater than or equal to 30 fold) | 100 to 1000 | –
17 | COc1ncc(NC(=O)C(=O)N2C[C@@H](C)CC[C@@H]2c2ccc3sc(C4CCNCC4)nc3c2)cc1C(N)=O [Compound 52, 2-methoxy-5-(2-((2R,5S)-5-methyl-2-(2-(piperidin-4-yl)benzo[d]thiazol-5-yl)piperidin-1-yl)-2-oxoacetamido)nicotinamide] | > 50 | 5 to 50 | 75 to 125 | B (“B” indicates an IC50 ratio greater than or equal to 15 fold but lower than 30 fold) | 100 to 1000 | –
18 | CCc1cc(NC(=O)C(=O)N2C[C@@H](C)CC[C@@H]2c2cccc(OC[C@H](C)N(C)C)c2)cnc1N [Compound 66, N-(6-amino-5-ethylpyridin-3-yl)-2-((2R,5S)-2-(3-((S)-2-(dimethylamino)propoxy)phenyl)-5-methylpiperidin-1-yl)-2-oxoacetamide] | > 50 | < 5 | < 75 | A (“A” indicates an IC50 ratio greater than or equal to 30 fold) | < 100 | –
19 | COc1ncc(NC(=O)C(=O)N2C[C@@H](C)CC[C@@H]2c2ccc3sc(C45CCN(CC4)C5)nc3c2)cc1C(N)=O [Compound 81, 5-(2-((2R,5S)-2-(2-(1-azabicyclo[2.2.1]heptan-4-yl)benzo[d]thiazol-5-yl)-5-methylpiperidin-1-yl)-2-oxoacetamido)-2-methoxynicotinamide] | > 50 | < 5 | < 75 | A (“A” indicates an IC50 ratio greater than or equal to 30 fold) | < 100 | –
20 | COc1ncc(NC(=O)C(=O)N2C[C@@H](C)CC[C@@H]2c2ccc3cn(C4CCOCC4)nc3c2)cc1C(N)=O [Compound 107, 2-methoxy-5-[[2-oxo-2-[(2R,5S)-5-methyl-2-(2-tetrahydropyran-4-ylindazol-6-yl)-1-piperidyl]acetyl]amino]pyridine-3-carboxamide] | > 50 | 5 to 50 | 75 to 125 | A (“A” indicates an IC50 ratio greater than or equal to 30 fold) | 100 to 1000 | –
